Our source for the IC50 values is patent US10201586B2 (dated 2019).

In this assay the target is TFPI (Homo sapiens, UniProt P10646). Put plainly: IC50 [nM].

pIC50: −log10 of the molar value. Where a SMILES comes first, the peptide text is derived from it.

Chain of TFPI (P10646 29-304 limits assumed): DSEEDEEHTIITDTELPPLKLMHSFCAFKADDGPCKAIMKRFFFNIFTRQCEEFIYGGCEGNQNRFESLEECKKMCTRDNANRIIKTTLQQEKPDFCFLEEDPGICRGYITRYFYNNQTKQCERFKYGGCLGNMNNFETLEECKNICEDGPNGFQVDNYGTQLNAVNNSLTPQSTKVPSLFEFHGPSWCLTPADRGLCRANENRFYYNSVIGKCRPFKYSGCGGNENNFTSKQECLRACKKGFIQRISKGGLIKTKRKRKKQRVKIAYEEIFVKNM

Turning to `CSCC[C@H](NC(=O)[C@H](CCC(=O)O)NC(=O)[C@H](CCCCN)NC(=O)[C@H](CO)NC(=O)[C@H](CCCNC(=N)N)NC(=O)[C@H](CCCCN)NC(=O)[C@H](CO)NC(=O)[C@@H](NC(=O)[C@H](Cc1c[nH]cn1)NC(=O)[C@H](C)NC(=O)[C@H](CCC(N)=O)NC(=O)[C@@H](NC(=O)[C@H](C)NC(=O)[C@H](CC(C)C)NC(=O)[C@@H]1CCCN1C(=O)[C@H](Cc1ccccc1)NC(=O)[C@H](CO)NC(=O)[C@H](C)NC(=O)[C@H](Cc1ccc(O)cc1)NC(=O)CNC(=O)[C@H](CO)NC(C)=O)C(C)C)C(C)C)C(=O)N[C@@H](C)C(=O)N[C@@H](CC(C)C)C(=O)N[C@@H](C)C(=O)N[C@@H](CCCNC(=N)N)C(=O)N[C@@H](CC(C)C)C(=O)N[C@@H](Cc1ccc(O)cc1)C(=O)N[C@@H](Cc1ccc(O)cc1)C(=O)N[C@@H](CCCCN)C(=O)N[C@H](C(=O)N[C@@H](CO)C(N)=O)[C@@H](C)O` [JBT0671 | 2019] (Ac-SGYASFPLAVQAHVSKRSKEMALARLYYKTS-NH2), the pIC50 – broadly, −log10 of the IC50, conventionally taken in molar units – is 5.23.
In the case of `CSCC[C@H](NC(=O)[C@H](CCC(=O)O)NC(=O)[C@H](CCCCN)NC(=O)[C@H](CO)NC(=O)[C@H](C)NC(=O)[C@H](CCCCN)NC(=O)[C@H](CO)NC(=O)[C@@H](NC(=O)[C@H](Cc1c[nH]cn1)NC(=O)[C@H](CC(C)C)NC(=O)[C@H](CCC(N)=O)NC(=O)[C@@H](NC(=O)[C@H](C)NC(=O)[C@H](CC(C)C)NC(=O)[C@@H]1CCCN1C(=O)[C@H](Cc1ccccc1)NC(=O)[C@H](CO)NC(=O)[C@H](C)NC(=O)[C@H](Cc1ccc(O)cc1)NC(=O)CNC(=O)[C@H](CO)NC(C)=O)C(C)C)C(C)C)C(=O)N[C@@H](C)C(=O)N[C@@H](CC(C)C)C(=O)N[C@@H](C)C(=O)N[C@@H](CCCNC(=N)N)C(=O)N[C@@H](CC(C)C)C(=O)N[C@@H](Cc1ccc(O)cc1)C(=O)N[C@@H](Cc1ccc(O)cc1)C(=O)N[C@@H](CCCCN)C(=O)N[C@H](C(=O)N[C@@H](CO)C(N)=O)[C@@H](C)O` [JBT0676 | 2137] (Ac-SGYASFPLAVQLHVSKASKEMALARLYYKTS-NH2), the pIC50 is 4.43.
For `CSCC[C@H](NC(=O)[C@H](CCC(=O)O)NC(=O)[C@H](CCCCN)NC(=O)[C@H](CO)NC(=O)[C@H](CCCNC(=N)N)NC(=O)[C@H](CCCCN)NC(=O)[C@H](CO)NC(=O)[C@@H](NC(=O)[C@H](Cc1c[nH]cn1)NC(=O)[C@H](CC(C)C)NC(=O)[C@H](CCC(N)=O)NC(=O)[C@@H](NC(=O)[C@H](C)NC(=O)[C@H](CC(C)C)NC(=O)[C@@H]1CCCN1C(=O)[C@H](Cc1ccccc1)NC(=O)[C@H](CO)NC(=O)[C@H](C)NC(=O)[C@H](Cc1ccc(O)cc1)NC(=O)CNC(=O)[C@H](CO)NC(C)=O)C(C)C)C(C)C)C(=O)N[C@@H](C)C(=O)N[C@@H](CC(C)C)C(=O)N[C@@H](C)C(=O)N[C@@H](CCCNC(=N)N)C(=O)N[C@@H](C)C(=O)N[C@@H](Cc1ccc(O)cc1)C(=O)N[C@@H](Cc1ccc(O)cc1)C(=O)N[C@@H](CCCCN)C(=O)N[C@H](C(=O)N[C@@H](CO)C(N)=O)[C@@H](C)O` [JBT0685 | 2021] (Ac-SGYASFPLAVQLHVSKRSKEMALARAYYKTS-NH2) the value was 5.04; for `CSCC[C@H](NC(=O)[C@H](CCC(=O)O)NC(=O)[C@H](CCCCN)NC(=O)[C@H](C)NC(=O)[C@H](CCCNC(=N)N)NC(=O)[C@H](CCCCN)NC(=O)[C@H](CO)NC(=O)[C@@H](NC(=O)[C@H](Cc1c[nH]cn1)NC(=O)[C@H](CC(C)C)NC(=O)[C@H](CCC(N)=O)NC(=O)[C@@H](NC(=O)[C@H](C)NC(=O)[C@H](CC(C)C)NC(=O)[C@@H]1CCCN1C(=O)[C@H](Cc1ccccc1)NC(=O)[C@H](CO)NC(=O)[C@H](C)NC(=O)[C@H](Cc1ccc(O)cc1)NC(=O)CNC(=O)[C@H](CO)NC(C)=O)C(C)C)C(C)C)C(=O)N[C@@H](C)C(=O)N[C@@H](CC(C)C)C(=O)N[C@@H](C)C(=O)N[C@@H](CCCNC(=N)N)C(=O)N[C@@H](CC(C)C)C(=O)N[C@@H](Cc1ccc(O)cc1)C(=O)N[C@@H](Cc1ccc(O)cc1)C(=O)N[C@@H](CCCCN)C(=O)N[C@H](C(=O)N[C@@H](CO)C(N)=O)[C@@H](C)O` [JBT0677 | 2009] (Ac-SGYASFPLAVQLHVSKRAKEMALARLYYKTS-NH2), 5.72.
For `CSCC[C@H](NC(=O)[C@H](CCC(=O)O)NC(=O)[C@H](CCCCN)NC(=O)[C@H](CO)NC(=O)[C@H](CCCNC(=N)N)NC(=O)[C@H](CCCCN)NC(=O)[C@H](CO)NC(=O)[C@@H](NC(=O)[C@H](Cc1c[nH]cn1)NC(=O)[C@H](CC(C)C)NC(=O)[C@H](C)NC(=O)[C@@H](NC(=O)[C@H](C)NC(=O)[C@H](CC(C)C)NC(=O)[C@@H]1CCCN1C(=O)[C@H](Cc1ccccc1)NC(=O)[C@H](CO)NC(=O)[C@H](C)NC(=O)[C@H](Cc1ccc(O)cc1)NC(=O)CNC(=O)[C@H](CO)NC(C)=O)C(C)C)C(C)C)C(=O)N[C@@H](C)C(=O)N[C@@H](CC(C)C)C(=O)N[C@@H](C)C(=O)N[C@@H](CCCNC(=N)N)C(=O)N[C@@H](CC(C)C)C(=O)N[C@@H](Cc1ccc(O)cc1)C(=O)N[C@@H](Cc1ccc(O)cc1)C(=O)N[C@@H](CCCCN)C(=O)N[C@H](C(=O)N[C@@H](CO)C(N)=O)[C@@H](C)O` [JBT0670 | 2007] (Ac-SGYASFPLAVALHVSKRSKEMALARLYYKTS-NH2) the value was 5.60.
Compound `CSCC[C@H](NC(=O)[C@H](CCC(=O)O)NC(=O)[C@H](CCCCN)NC(=O)[C@H](CO)NC(=O)[C@H](CCCNC(=N)N)NC(=O)[C@H](C)NC(=O)[C@H](CO)NC(=O)[C@@H](NC(=O)[C@H](Cc1c[nH]cn1)NC(=O)[C@H](CC(C)C)NC(=O)[C@H](CCC(N)=O)NC(=O)[C@@H](NC(=O)[C@H](C)NC(=O)[C@H](CC(C)C)NC(=O)[C@@H]1CCCN1C(=O)[C@H](Cc1ccccc1)NC(=O)[C@H](CO)NC(=O)[C@H](C)NC(=O)[C@H](Cc1ccc(O)cc1)NC(=O)CNC(=O)[C@H](CO)NC(C)=O)C(C)C)C(C)C)C(=O)N[C@@H](C)C(=O)N[C@@H](CC(C)C)C(=O)N[C@@H](C)C(=O)N[C@@H](CCCNC(=N)N)C(=O)N[C@@H](CC(C)C)C(=O)N[C@@H](Cc1ccc(O)cc1)C(=O)N[C@@H](Cc1ccc(O)cc1)C(=O)N[C@@H](CCCCN)C(=O)N[C@H](C(=O)N[C@@H](CO)C(N)=O)[C@@H](C)O` [JBT0675 | 2136] (Ac-SGYASFPLAVQLHVSARSKEMALARLYYKTS-NH2) had a pIC50 of 4.74.
`CSCC[C@H](NC(=O)[C@H](CCC(=O)O)NC(=O)[C@H](CCCCN)NC(=O)[C@H](CO)NC(=O)[C@H](CCCNC(=N)N)NC(=O)[C@H](CCCCN)NC(=O)[C@H](C)NC(=O)[C@@H](NC(=O)[C@H](Cc1c[nH]cn1)NC(=O)[C@H](CC(C)C)NC(=O)[C@H](CCC(N)=O)NC(=O)[C@@H](NC(=O)[C@H](C)NC(=O)[C@H](CC(C)C)NC(=O)[C@@H]1CCCN1C(=O)[C@H](Cc1ccccc1)NC(=O)[C@H](CO)NC(=O)[C@H](C)NC(=O)[C@H](Cc1ccc(O)cc1)NC(=O)CNC(=O)[C@H](CO)NC(C)=O)C(C)C)C(C)C)C(=O)N[C@@H](C)C(=O)N[C@@H](CC(C)C)C(=O)N[C@@H](C)C(=O)N[C@@H](CCCNC(=N)N)C(=O)N[C@@H](CC(C)C)C(=O)N[C@@H](Cc1ccc(O)cc1)C(=O)N[C@@H](Cc1ccc(O)cc1)C(=O)N[C@@H](CCCCN)C(=O)N[C@H](C(=O)N[C@@H](CO)C(N)=O)[C@@H](C)O` [JBT0674 | 2008] (Ac-SGYASFPLAVQLHVAKRSKEMALARLYYKTS-NH2) gave a pIC50 of 5.93.
